Assay results reported in patent publication US6680334B2, “Crystalline material” (Pfizer Inc, priority 2001, dated 2004).
Converted amounts (≈) assume the structure as drawn. One block for each molecule: values may come before it.

Legend:
[1] = Solubility in aqueous buffers of different pH; assay type: physicochemical; details: for solubility: aqueous buffer
[2] = assay type: physicochemical
Description: The stability of crystalline amlodipine free base bulk and amlodipine free base tablets was assessed by storing samples for up to 6 or 12 weeks at 25° C./60% RH, 40° C./75% RH and 50° C./20% RH. Changes were monitored using a stability-indicating HPLC method. Results were calculated by normalised peak area (npa). Degradants were identified by comparison of their relative retention times against impurity standards.

solubility ([1]; pH 1.2, simulated gastric fluid, SGN pH: 1.20): > 5 mg/mL | solubility ([1]; Acetate pH: 5.93): > 5 mg/mL | solubility ([1]; Glycine pH: 9.25): 0.13 mg/mL (≈ 318 µM) | solubility ([1]; NaOH pH: 11.44): < 0.05 mg/mL | solubility ([1]; Phosphate pH: 7.71): 0.72 mg/mL (≈ 1760 µM)
Compound: CCOC(=O)C1=C(COCCN)NC(C)=C(C(=O)OC)C1c1ccccc1Cl (racemic) [Example 2, Amlodipine]

Stability with respect to formation of known and unknown degradants [2]: stability was demonstrated
Compound: CCOC(=O)C1=C(COCCN)NC(C)=C(C(=O)OC)C1c1ccccc1Cl (stereo not shown) [crystalline amlodipine free base, 2-[(2-aminoethoxy)]-methyl-4-(2-chlorophenyl)-3-ethoxycarbonyl-5-methoxycarbonyl-6-methyl-1,4-dihydropyridine]

Solubility (in words) ([1]; solid free base initially synthesised in-house, no conditions given): poorly soluble
Compound: CCOC(=O)C1=C(COCCN)NC(C)=C(C(=O)OC)C1c1ccccc1Cl (stereo not shown) [solid free base initially synthesised, Amlodipine, reference compound]
